Experimental data: patent US7153855B2, “Pyrazolopyridinyl pyrimidine therapeutic compounds” (SmithKline Beecham Corporation, priority 2001, dated 2006)
pIC50: −log10 of the molar value.

test system: HSV-1; test: HSV-1 infection of Vero 76 cells, viral DNA detected by hybridization capture (chemiluminescence); format: cell-based; conditions: Human alphaherpesvirus 1; HSV-1 in Vero 76 cells, MOI=0.001, compounds incubated 40–48 hours at 37° C.; read-out: IC50
From the text: In the following example, “MEM” means Minimal Essential Media; “FBS” means Fetal Bovine Serum; “NP40” and “Igepal” are detergents; “MOI” means Multiplicity of Infection; “NaOH” means sodium hydroxide; “MgCl2” means magnesium chloride; “dATP” means deoxyadenosine 5′ triphosphate; “dUTP” means deoxyuridine 5′ triphosphate; “dCTP” means dexoxycytidine 5′ triphosphate; “dGTP” means deoxyguanosine 5′ triphosphate; “GuSCN” means Guanidinium thiocyanate; “EDTA” means ethylenediamine tetraacetic acid; “TE” means Tris-EDTA; “SCC” means sodium chloride/sodium citrate; “APE” means a solution of ammonia acetate, ammonia phosphate, EDTA; “PBS” means phosphate buffered saline; and “HRP” means horseradish peroxidase.
Vero 76 cells were maintained in MEM with Earle's salts, L-glutamine, 8% FBS (Hyclone, A-1111-L) and 100 units/mL Penicillin-100 μg/mL Streptomycin. For assay conditions, FBS was reduced to 2%. Cells are seeded into 96-well tissue culture plates at a density of 5×10^4 cells/well after being incubated for 45 min at 37° C. in the presence of HSV-1 or HSV-2 (MOI=0.001). Test compounds are added to the wells and the plates are incubated at 37° C. for 40–48 hours. Cell lysates are prepared as follows: media was removed and replaced with 150 μL/well 0.2 N NaOH with 1% Igepal CA 630 or NP-40. Plates were incubated up to 14 days at room temperature in a humidified chamber to prevent evaporation.
For the detection probe, a gel-purified, digoxigenin-labeled, 710-bp PCR fragment of the HSV UL-15 sequence was utilized. PCR conditions included 0.5 μM primers, 180 μM dTTP, 20 μM dUTP-digoxigenin (Boehringer Mannheim 1558706), 200 μM each of dATP, dCTP, and dGTP, 1×PCR Buffer II (Perkin Elmer), 2.5 mM MgCl2, 0.025 units/μL of AmpliTaq Gold polymerase (Perkin Elmer), and 5 ng of gel-purified HSV DNA per 100 μL Extension conditions were 10 min at 95° C., followed by 30 cycles of 95° C. for 1 min, 55° C. for 30 sec, and 72° C. for 2 min. The amplification was completed with a 10-min incubation at 72° C. Primers were selected to amplify a 728 bp probe spanning a section of the HSV1 UL15 open reading frame (nucleotides 249–977). Single-stranded transcripts were purified with Promega M13 Wizard kits. The final product was mixed 1:1 with a mixture of 6 M GuSCN, 100 mM EDTA and 200 μg/mL herring sperm DNA and stored at 4° C.
The capture DNA plasmid (HSV UL13 region in pUC) was linearized by cutting with Xba I, denatured for 15 min at 95° C. and diluted immediately into Reacti-Bind DNA Coating Solution (Pierce, 17250, diluted 1:1 with TE buffer, pH 8) at 1 ng/μL 75 μL/well were added to Corning (#3922 or 9690) white 96-well plates and incubated at room temperature for at least 4 hrs before washing twice with 300 μL/well 0.2×SSC/0.05% Tween-20 (SSC/T buffer). The plates were then incubated overnight at room temperature with 150 μL/well 0.2 N NaOH, 1% IGEPAL and 10 μg/mL herring sperm DNA.
Twenty-seven (27) μL of cell lysate was combined with 45 μL of hybridization solution (final concentration: 3M GuSCN, 50 mM EDTA, 100 μg/ml salmon sperm DNA, 5×Denhardt's solution, 0.25×APE, and 5 ng of the digoxigenin-labeled detection probe). APE is 1.5 M NH4-acetate, 0.15 M NH4H2 phosphate, and 5 mM EDTA adjusted to pH 6.0. Mineral oil (50 μL) was added to prevent evaporation. The hybridization plates were incubated at 95° C. for 10 minutes to denature the DNA, then incubated at 42° C. overnight. The wells were washed 6× with 300 μL/well SSC/T buffer then incubated with 75 μL/well anti-digoxigenin-HRP-conjugated antibody (Boehringer Mannheim 1207733, 1:5000 in TE) for 30 min at room temperature. The wells were washed 6× with 300 μL/well with PBS/0.05% Tween-20 before 75 μL/well SuperSignal LBA substrate (Pierce) was added. The plates were incubated at room temperature for 30 minutes and chemiluminescence was measured in a Wallac Victor reader.
The following results were obtained for HSV-1.

Row | SMILES | pIC50
1 | COc1ccc(-c2nn3c(NC4CCCC4)cccc3c2-c2ccnc(NC3CCCC3)n2)cc1 [Example 1, N-Cyclopentyl-3-[2-(cyclopentylamino)-4-pyrimidinyl]-2-(4-methoxyphenyl)-pyrazolo[1,5-a]pyridin-7-amine] | 6.52
2 | COc1ccc(-c2nn3c(N4CCCC4)cccc3c2-c2ccnc(NC3CCCC3)n2)cc1 [Example 2, N-Cyclopentyl-4-[2-(4-methoxyphenyl)-7-(1-pyrrolidinyl)pyrazolo[1,5-a]pyridin-3-yl]-2-pyrimidinamine] | 6.22
3 | COc1ccc(-c2nn3c(N4CCCC4)cccc3c2-c2ccnc(N)n2)cc1 [Example 3, 4-[2-(4-Methoxyphenyl)-7-(1-pyrrolidinyl)pyrazolo[1,5-a]pyridin-3-yl]-2-pyrimidinamine] | 5.30
4 | Oc1ccc(-c2nn3c(NC4CCCC4)cccc3c2-c2ccnc(NC3CCCC3)n2)cc1 [Example 4, 4-{7-(Cyclopentylamino)-3-[2-(cyclopentylamino)-4-pyrimidinyl]pyrazolo-[1,5-a]pyridin-2-yl}phenol] | 6.00
5 | Oc1ccc(-c2nn3c(N4CCCC4)cccc3c2-c2ccnc(NC3CCCC3)n2)cc1 [Example 5, 4-[3-[2-(Cyclopentylamino)-4-pyrimidinyl]-7-(1-pyrrolidinyl)pyrazolo[1,5-a]pyridin-2-yl]phenol] | 5.70
6 | Nc1nccc(-c2c(-c3ccc(O)cc3)nn3c(N4CCCC4)cccc23)n1 [Example 6, 4-[3-(2-Amino-4-pyrimidinyl)-7-(1-pyrrolidinyl)pyrazolo[1,5-a]pyridin-2-yl]phenol] | 5.30
7 | C=CCOc1ccc(-c2nn3c(NC4CCCC4)cccc3c2-c2ccnc(NC3CCCC3)n2)cc1 [Example 7, 2-[4-(Allyloxy)phenyl]-N-cyclopentyl-3-[2-(cyclopentylamino)-4-pyrimidinyl]pyrazolo[1,5-a]pyridin-7-amine] | 6.82
8 | CCOC(=O)COc1ccc(-c2nn3c(NC4CCCC4)cccc3c2-c2ccnc(NC3CCCC3)n2)cc1 [Example 8, Ethyl (4-{7-(cyclopentylamino)-3-[2-(cyclopentylamino)-4-pyrimidinyl]-pyrazolo[1,5-a]pyridin-2-yl}phenoxy)acetate] | 5.52
9 | CCCCOc1ccc(-c2nn3c(NC4CCCC4)cccc3c2-c2ccnc(NC3CCCC3)n2)cc1 [Example 9, 2-(4-Butoxyphenyl)-N-cyclopentyl-3-[2-(cyclopentylamino)-4-pyrimidinyl]-pyrazolo[1,5-a]pyridin-7-amine] | 5.52
10 | CC(C)COc1ccc(-c2nn3c(NC4CCCC4)cccc3c2-c2ccnc(NC3CCCC3)n2)cc1 [Example 10, N-Cyclopentyl-3-[2-(cyclopentylamino)-4-pyrimidinyl]-2-(4-isobutoxyphenyl)pyrazolo [1,5-a]pyridin-7-amine] | 6.05
11 | c1cc(NC2CCCC2)n2nc(-c3ccc(OCC4CC4)cc3)c(-c3ccnc(NC4CCCC4)n3)c2c1 [Example 11, N-Cyclopentyl-3-[2-(cyclopentylamino)-4-pyrimidinyl]-2-[4-(cyclopropyl-methoxy)phenyl]pyrazolo[1,5-a]pyridin-7-amine] | 6.52
12 | c1cc(NC2CCCC2)n2nc(-c3ccc(OCC4CCC4)cc3)c(-c3ccnc(NC4CCCC4)n3)c2c1 [Example 12, 2-[4-(Cyclobutylmethoxy)phenyl]-N-cyclopentyl-3-[2-(cyclopentylamino)-4-pyrimidinyl]pyrazolo[1,5-a]pyridin-7-amine] | 5.70
13 | c1ccc(Oc2ccc(-c3nn4c(NC5CCCC5)cccc4c3-c3ccnc(NC4CCCC4)n3)cc2)cc1 [Example 13, N-Cyclopentyl-3-[2-(cyclopentylamino)-4-pyrimidinyl]-2-(4-phenoxyphenyl)pyrazolo[1,5-a]pyridin-7-amine] | 6.00
14 | CCCCNc1nccc(-c2c(-c3ccc(-c4ccccc4)cc3)nn3c(NCCCC)cccc23)n1 [Example 15, 2-[1,1′-Biphenyl]-4-yl-N-butyl-3-[2-(butylamino)-4-pyrimidinyl]pyrazolo-[1,5-a]pyridin-7-amine] | 6.00
15 | CCCCNc1nccc(-c2c(-c3ccc(N)cc3)nn3c(NCCCC)cccc23)n1 [Example 16, N-{4-[2-(4-Aminophenyl)-7-(butylamino)pyrazolo[1,5-a]pyridin-3-yl]-2-pyrimidinyl}-N-butylamine] | 6.00
16 | CCCCNc1nccc(-c2c(-c3ccc(NC4CCCCC4)cc3)nn3c(NCCCC)cccc23)n1 [Example 17, N-Butyl-3-[2-(butylamino)-4-pyrimidinyl]-2-[4-(cyclohexylamino)phenyl]-pyrazolo[1,5-a]pyridin-7-amine] | 5.82
17 | C=C(C)c1ccc(-c2nn3c(NCCCC)cccc3c2-c2ccnc(NCCCC)n2)cc1 [Example 18, N-Butyl-3-[2-(butylamino)-4-pyrimidinyl]-2-(4-isopropenylphenyl)-pyrazolo[1,5-a]pyridin-7-amine] | 5.05
18 | CCCCNc1nccc(-c2c(-c3ccc(Nc4ccccc4)cc3)nn3c(NCCCC)cccc23)n1 [Example 19, 2-(4-Anilinophenyl)-N-butyl-3-[2-(butylamino)-4-pyrimidinyl]pyrazolo[1,5-a]pyridin-7-amine] | 6.30
19 | CCCCNc1nccc(-c2c(-c3ccc(Nc4ccccc4)cc3)nn3c(N(CCCC)c4ccccc4)cccc23)n1 [Example 20, 2-(4-Anilinophenyl)-N-butyl-3-[2-(butylamino)-4-pyrimidinyl]-N-phenylpyrazolo[1,5-a]pyridin-7-amine] | 4.80
20 | CCCCNc1nccc(-c2c(-c3ccc(N(CC4CC4)CC4CC4)cc3)nn3c(NCCCC)cccc23)n1 [Example 21, 2-{4-[Bis(cyclopropylmethyl)amino]phenyl}-N-butyl-3-[2-(butylamino)-4-pyrimidinyl]pyrazolo[1,5-a]pyridin-7-amine] | 4.82
21 | CCCCNc1nccc(-c2c(-c3ccc(NCC4CC4)cc3)nn3c(NCCCC)cccc23)n1 [Example 22, N-butyl-3-[2-(butylamino)-4-pyrimidinyl]-2-{4-[(cyclopropylmethyl)amino]phenyl}pyrazolo[1,5-a]pyridin-7-amine] | 6.22
22 | CCCCNc1nccc(-c2c(-c3ccc(N(C)C)cc3)nn3c(NCCCC)cccc23)n1 [Example 23, N-Butyl-3-[2-(butylamino)-4-pyrimidinyl]-2-[4-(dimethylamino)phenyl]-pyrazolo[1,5-a]pyridin-7-amine] | 5.70
23 | Brc1ccccc1-c1nn2c(NC3CCCC3)cccc2c1-c1ccnc(NC2CCCC2)n1 [Example 24, 2-(2-Bromophenyl)-N-cyclopentyl-3-[2-(cyclopentylamino)-4-pyrimidinyl]pyrazolo[1,5-a]pyridin-7-amine] | 6.05
24 | Brc1cccc(-c2nn3c(NC4CCCC4)cccc3c2-c2ccnc(NC3CCCC3)n2)c1 [Example 25, 2-(3-Bromophenyl)-N-cyclopentyl-3-[2-(cyclopentylamino)-4-pyrimidinyl]pyrazolo[1,5-a]pyridin-7-amine] | 6.70
25 | Brc1cccc(-c2nn3c(N4CCCC4)cccc3c2-c2ccnc(NC3CCCC3)n2)c1 [Example 26, 4-[2-(3-Bromophenyl)-7-(1-pyrrolidinyl)pyrazolo[1,5-a]pyridin-3-yl]-N-cyclopentyl-2-pyrimidinamine] | 6.22
